Assay results from EP3785697A1, “COSMETIC COMPOSITIONS COMPRISING PIPERLONGUMINE” (Unilever N.V., priority 2019, dated 2021).
≈ marks a conversion by molar mass, not a printed value.

Assays:
[1] = system: IL-6; experiment: Human immune cell line THP-1 in vitro assay, IL-6 measured by ELISA in supernatant; type: cell-based
Description: (§1) In this assay, the concentration of IL-6 (Interleukin-6) and the % cell viability are measured. Widening of therapeutic window is indicated by the concentration of Interleukin-6 (IL-6) as measured on the Human Immune cell Line using the THP-1 invitro assay in pg/ml and the % cell viability of THP-1 cells.
(§2) Cells were differentiated in 24-well plates at the density of 5 x 10^5 cells / well with 100 nM PMA for 72 hours. Cells were then co-treated with E.coli lipopolysaccharides (LPS) and single concentration or a combination of piperlongumine and L-cystine at different doses. After 24 hours, the supernatants were collected for measurement of interleukin (IL)-6 as a pro-inflammatory biomarker using enzyme-linked immunosorbent assay (ELISA).

[2] = in vitro; details: human, oral keratinocytes
Description: (§3) HOKs (Passage 4-6) were seeded in 96 well-plates at the density of 2 x 10^4 cells / well overnight. On the experimental day the cells were treated with heat killed P.gingivalis and single concentration or a combination of piperlongumine and L-cystine at different doses. After 24 hours, cell viability was measured with cell counting kit-8.

[3] = 25°C; cited from earlier work
[4] = Human immune cell line THP-1 in vitro assay, cell viability; details: thp-1 cells, Cell viability (%)
Description: as §1, §2

[5] = Human oral keratinocytes (HOK) in vitro assay, cell viability by cell counting kit-8; details: human, oral keratinocytes, Cell viability (%), Table 3, Piperlongumine 15 µM, HOKs treated with heat killed P.gingivalis, Control 100
Description: as §3

[6] = system: Human oral keratinocytes (HOK); experiment: as above; details: Table 3; Piperlongumine 15 µM, HOKs treated with heat killed P.gingivalis, 24 hours; Control 100; 1440 min, 15 µM
Description: as §3

[7] = system: THP-1 cells; details: human, 24 h, 100 µM
Description: as §1, §2

For `N[C@@H](CSSC[C@H](N)C(=O)O)C(=O)O` [L-cystine], the “Concentration of IL-6” value ([1]; Table 1, L-cystine 100 µM, co-treated with E.coli LPS, 24 hours, Control 98, LPS alone 2252) was 1896 pg/mL, the viability at 24 h, 50 µM [2] was 102% and the viability at 24 h, 100 µM [2] was 109%. The Solubility in water [3] was 112 µg/mL (≈ 466 µM).
For `COc1cc(/C=C/C(=O)N2CCC=CC2=O)cc(OC)c1OC` [Piperlongumine, 5,6-dihydro-1-[(2E)-1-oxo-3-(3,4,5-trimethoxyphenyl)-2-propenyl]-2(1 H)-pyridinone], the “Concentration of IL-6” value ([1]; Table 1, Piperlongumine 5 µM, co-treated with E.coli LPS, 24 hours, Control 98, LPS alone 2252) was 103 pg/mL, the “Concentration of IL-6” value ([1]; Table 1, Piperlongumine 10 µM, co-treated with E.coli LPS, 24 hours, Control 98, LPS alone 2252) was 117 pg/mL and the “Concentration of IL-6” value ([1]; Table 2, Piperlongumine 10 µM, Control 122, LPS alone 3953) was 91 pg/mL. For the same compound, the viability at 24 h, 5 µM ([4]; Table 1, Piperlongumine 5 µM, co-treated with E.coli LPS, 24 hours, Control 100, LPS alone 91) was 100%, the viability at 24 h, 10 µM ([4]; Table 1, Piperlongumine 10 µM, co-treated with E.coli LPS, 24 hours, Control 100, LPS alone 91) was 74% and the viability at 24 h, 10 µM ([4]; Table 2, Piperlongumine 10 µM, Control 100, LPS alone 86) was 39%. The viability at 24 h, 15 µM [5] was 63.4% and the “Cell viability (%)” value [6] was 63.38%.
For Vitamin E [reference compound], the “Concentration of IL-6” value ([1]; Table 2, Vitamin E 100 µM, Control 122, LPS alone 3953) was 2998 pg/mL and the “Cell viability (%)” value [7] was 73%.
